# Experimental data from patent publication US20230123334A1, “AMINO LIPID COMPOUND, PREPARATION METHOD THEREFOR, AND APPLICATION THEREOF” (SHENZHEN SHENXIN BIOTECHNOLOGY CO., LTD., priority 2020, published 2023).
# Test system: HEK293 cells
# Assay: Preliminary screening as DNA vectors, GFP transfection of HEK293 cells
# Type: cell-based
# Settings: amino lipid/DOPE liposome with 75 ng plasmid DNA (psin-EGFP-IRES-Puro); number of GFP-expressing cells divided by total nuclei (Hoechst)
# Method in brief: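 First, amino lipid and DOPE were vortexed in sodium acetate buffer (pH 5.6) to form liposomes. Next, these were held with 75 ng EGFP plasmid at room temperature for 30 min. Finally, HEK293 cells were added, cultured at 37° C., Hoechst-stained, and GFP+/total nuclei scored by imaging.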
smiles,measurement,value
CCCCCCCCCCCNc1nc(NCCN2CCCCC2)nc(SCCCCCCCCCCC)n1 [S11N11 D4],Absolute DNA transfection efficiency in HEK293 cells,1.0%
CCCCCCCCCCCNc1nc(NCCN2CCN(C)CC2)nc(SCCCCCCCCCCC)n1 [S11N11 D5],Absolute DNA transfection efficiency in HEK293 cells,10.1%
CCCCCCCCCCCNc1nc(NCCCN(C)C)nc(SCCCCCCCCCCC)n1 [S11N11 D6],Absolute DNA transfection efficiency in HEK293 cells,22.8%
CCCCCCCCCCCNc1nc(NCCN(CC)CC)nc(SCCCCCCCCCCC)n1 [S11N11 D7],Absolute DNA transfection efficiency in HEK293 cells,6.8%
CCCCCCCCCCCNc1nc(NCCCN2CCOCC2)nc(SCCCCCCCCCCC)n1 [S11N11 D8],Absolute DNA transfection efficiency in HEK293 cells,2.5%
CCCCCCCCCCCNc1nc(NCCCN2CCN(C)CC2)nc(SCCCCCCCCCCC)n1 [S11N11 D9],Absolute DNA transfection efficiency in HEK293 cells,4.9%
CCCCCCCCCCCNc1nc(NCC2CCN(C)CC2)nc(SCCCCCCCCCCC)n1 [S11N11 D10],Absolute DNA transfection efficiency in HEK293 cells,5.6%
CCCCCCCCCCCCNc1nc(NCCN(C)C)nc(SCCCCCCCCCCC)n1 [S11N12 D1],Absolute DNA transfection efficiency in HEK293 cells,16.2%
CCCCCCCCCCCCNc1nc(NCCN2CCOCC2)nc(SCCCCCCCCCCC)n1 [S11N12 D2],Absolute DNA transfection efficiency in HEK293 cells,3.1%
CCCCCCCCCCCCNc1nc(NCCN2CCCC2)nc(SCCCCCCCCCCC)n1 [S11N12 D3],Absolute DNA transfection efficiency in HEK293 cells,22.8%
CCCCCCCCCCCCNc1nc(NCCN2CCCCC2)nc(SCCCCCCCCCCC)n1 [S11N12 D4],Absolute DNA transfection efficiency in HEK293 cells,3.4%
CCCCCCCCCCCCNc1nc(NCCN2CCN(C)CC2)nc(SCCCCCCCCCCC)n1 [S11N12 D5],Absolute DNA transfection efficiency in HEK293 cells,14.1%
CCCCCCCCCCCCNc1nc(NCCCN(C)C)nc(SCCCCCCCCCCC)n1 [S11N12 D6],Absolute DNA transfection efficiency in HEK293 cells,18.8%
CCCCCCCCCCCCNc1nc(NCCN(CC)CC)nc(SCCCCCCCCCCC)n1 [S11N12 D7],Absolute DNA transfection efficiency in HEK293 cells,9.8%
CCCCCCCCCCCCNc1nc(NCCCN2CCOCC2)nc(SCCCCCCCCCCC)n1 [S11N12 D8],Absolute DNA transfection efficiency in HEK293 cells,1.5%
CCCCCCCCCCCCNc1nc(NCCCN2CCN(C)CC2)nc(SCCCCCCCCCCC)n1 [S11N12 D9],Absolute DNA transfection efficiency in HEK293 cells,5.9%
CCCCCCCCCCCCNc1nc(NCC2CCN(C)CC2)nc(SCCCCCCCCCCC)n1 [S11N12 D10],Absolute DNA transfection efficiency in HEK293 cells,4.7%
CCCCCCCCCCCCCNc1nc(NCCN(C)C)nc(SCCCCCCCCCCC)n1 [S11N13 D1],Absolute DNA transfection efficiency in HEK293 cells,10.6%
CCCCCCCCCCCCCNc1nc(NCCN2CCOCC2)nc(SCCCCCCCCCCC)n1 [S11N13 D2],Absolute DNA transfection efficiency in HEK293 cells,5.5%
CCCCCCCCCCCCCNc1nc(NCCN2CCCC2)nc(SCCCCCCCCCCC)n1 [S11N13 D3],Absolute DNA transfection efficiency in HEK293 cells,17.5%
CCCCCCCCCCCCCNc1nc(NCCN2CCCCC2)nc(SCCCCCCCCCCC)n1 [S11N13 D4],Absolute DNA transfection efficiency in HEK293 cells,3.5%
CCCCCCCCCCCCCNc1nc(NCCN2CCN(C)CC2)nc(SCCCCCCCCCCC)n1 [S11N13 D5],Absolute DNA transfection efficiency in HEK293 cells,8.4%
CCCCCCCCCCCCCNc1nc(NCCCN(C)C)nc(SCCCCCCCCCCC)n1 [S11N13 D6],Absolute DNA transfection efficiency in HEK293 cells,13.6%
CCCCCCCCCCCCCNc1nc(NCCN(CC)CC)nc(SCCCCCCCCCCC)n1 [S11N13 D7],Absolute DNA transfection efficiency in HEK293 cells,2.8%
CCCCCCCCCCCCCNc1nc(NCCCN2CCOCC2)nc(SCCCCCCCCCCC)n1 [S11N13 D8],Absolute DNA transfection efficiency in HEK293 cells,0.9%
CCCCCCCCCCCCCNc1nc(NCCCN2CCN(C)CC2)nc(SCCCCCCCCCCC)n1 [S11N13 D9],Absolute DNA transfection efficiency in HEK293 cells,4.9%
CCCCCCCCCCCCCNc1nc(NCC2CCN(C)CC2)nc(SCCCCCCCCCCC)n1 [S11N13 D10],Absolute DNA transfection efficiency in HEK293 cells,3.8%
CCCCCCCCCCCCCCCNc1nc(NCCN(C)C)nc(SCCCCCCCCCCC)n1 [S11N15 D1],Absolute DNA transfection efficiency in HEK293 cells,12.5%
CCCCCCCCCCCCCCCNc1nc(NCCN2CCOCC2)nc(SCCCCCCCCCCC)n1 [S11N15 D2],Absolute DNA transfection efficiency in HEK293 cells,1.3%
CCCCCCCCCCCCCCCNc1nc(NCCN2CCCC2)nc(SCCCCCCCCCCC)n1 [S11N15 D3],Absolute DNA transfection efficiency in HEK293 cells,24.5%
CCCCCCCCCCCCCCCNc1nc(NCCN2CCCCC2)nc(SCCCCCCCCCCC)n1 [S11N15 D4],Absolute DNA transfection efficiency in HEK293 cells,9.0%
CCCCCCCCCCCCCCCNc1nc(NCCN2CCN(C)CC2)nc(SCCCCCCCCCCC)n1 [S11N15 D5],Absolute DNA transfection efficiency in HEK293 cells,9.9%
CCCCCCCCCCCCCCCNc1nc(NCCCN(C)C)nc(SCCCCCCCCCCC)n1 [S11N15 D6],Absolute DNA transfection efficiency in HEK293 cells,8.2%
CCCCCCCCCCCCCCCNc1nc(NCCN(CC)CC)nc(SCCCCCCCCCCC)n1 [S11N15 D7],Absolute DNA transfection efficiency in HEK293 cells,5.2%
CCCCCCCCCCCCCCCNc1nc(NCCCN2CCOCC2)nc(SCCCCCCCCCCC)n1 [S11N15 D8],Absolute DNA transfection efficiency in HEK293 cells,0.1%
CCCCCCCCCCCCCCCNc1nc(NCCCN2CCN(C)CC2)nc(SCCCCCCCCCCC)n1 [S11N15 D9],Absolute DNA transfection efficiency in HEK293 cells,7.0%
CCCCCCCCCCCCCCCNc1nc(NCC2CCN(C)CC2)nc(SCCCCCCCCCCC)n1 [S11N15 D10],Absolute DNA transfection efficiency in HEK293 cells,7.0%
CCCCCCCCCCCCCCCCNc1nc(NCCN(C)C)nc(SCCCCCCCCCCC)n1 [S11N16 D1],Absolute DNA transfection efficiency in HEK293 cells,8.2%
CCCCCCCCCCCCCCCCNc1nc(NCCN2CCOCC2)nc(SCCCCCCCCCCC)n1 [S11N16 D2],Absolute DNA transfection efficiency in HEK293 cells,3.5%
CCCCCCCCCCCCCCCCNc1nc(NCCN2CCCC2)nc(SCCCCCCCCCCC)n1 [S11N16 D3],Absolute DNA transfection efficiency in HEK293 cells,13.8%
CCCCCCCCCCCCCCCCNc1nc(NCCN2CCCCC2)nc(SCCCCCCCCCCC)n1 [S11N16 D4],Absolute DNA transfection efficiency in HEK293 cells,4.4%
CCCCCCCCCCCCCCCCNc1nc(NCCN2CCN(C)CC2)nc(SCCCCCCCCCCC)n1 [S11N16 D5],Absolute DNA transfection efficiency in HEK293 cells,6.8%
CCCCCCCCCCCCCCCCNc1nc(NCCCN(C)C)nc(SCCCCCCCCCCC)n1 [S11N16 D6],Absolute DNA transfection efficiency in HEK293 cells,5.7%
CCCCCCCCCCCCCCCCNc1nc(NCCN(CC)CC)nc(SCCCCCCCCCCC)n1 [S11N16 D7],Absolute DNA transfection efficiency in HEK293 cells,1.7%
CCCCCCCCCCCCCCCCNc1nc(NCCCN2CCOCC2)nc(SCCCCCCCCCCC)n1 [S11N16 D8],Absolute DNA transfection efficiency in HEK293 cells,0.4%
CCCCCCCCCCCCCCCCNc1nc(NCCCN2CCN(C)CC2)nc(SCCCCCCCCCCC)n1 [S11N16 D9],Absolute DNA transfection efficiency in HEK293 cells,6.6%
CCCCCCCCCCCCCCCCNc1nc(NCC2CCN(C)CC2)nc(SCCCCCCCCCCC)n1 [S11N16 D10],Absolute DNA transfection efficiency in HEK293 cells,3.9%
CCCCCCCCCCCCCCCCCCNc1nc(NCCN(C)C)nc(SCCCCCCCCCCC)n1 [S11N18 D1],Absolute DNA transfection efficiency in HEK293 cells,13.8%
CCCCCCCCCCCCCCCCCCNc1nc(NCCN2CCOCC2)nc(SCCCCCCCCCCC)n1 [S11N18 D2],Absolute DNA transfection efficiency in HEK293 cells,2.8%
CCCCCCCCCCCCCCCCCCNc1nc(NCCN2CCCC2)nc(SCCCCCCCCCCC)n1 [S11N18 D3],Absolute DNA transfection efficiency in HEK293 cells,32.1%
CCCCCCCCCCCCCCCCCCNc1nc(NCCN2CCCCC2)nc(SCCCCCCCCCCC)n1 [S11N18 D4],Absolute DNA transfection efficiency in HEK293 cells,4.4%
CCCCCCCCCCCCCCCCCCNc1nc(NCCN2CCN(C)CC2)nc(SCCCCCCCCCCC)n1 [S11N18 D5],Absolute DNA transfection efficiency in HEK293 cells,9.3%
CCCCCCCCCCCCCCCCCCNc1nc(NCCCN(C)C)nc(SCCCCCCCCCCC)n1 [S11N18 D6],Absolute DNA transfection efficiency in HEK293 cells,21.7%
CCCCCCCCCCCCCCCCCCNc1nc(NCCN(CC)CC)nc(SCCCCCCCCCCC)n1 [S11N18 D7],Absolute DNA transfection efficiency in HEK293 cells,3.4%
CCCCCCCCCCCCCCCCCCNc1nc(NCCCN2CCOCC2)nc(SCCCCCCCCCCC)n1 [S11N18 D8],Absolute DNA transfection efficiency in HEK293 cells,4.4%
CCCCCCCCCCCCCCCCCCNc1nc(NCCCN2CCN(C)CC2)nc(SCCCCCCCCCCC)n1 [S11N18 D9],Absolute DNA transfection efficiency in HEK293 cells,9.3%
CCCCCCCCCCCCCCCCCCNc1nc(NCC2CCN(C)CC2)nc(SCCCCCCCCCCC)n1 [S11N18 D10],Absolute DNA transfection efficiency in HEK293 cells,5.7%
CCCCCCCCCCCCN(CCCCCCCCCCCC)c1nc(NCCN(C)C)nc(SCCCCCCCCCCC)n1 [S11^2N12 D1],Absolute DNA transfection efficiency in HEK293 cells,0.0%
CCCCCCCCCCCCN(CCCCCCCCCCCC)c1nc(NCCN2CCOCC2)nc(SCCCCCCCCCCC)n1 [S11^2N12 D2],Absolute DNA transfection efficiency in HEK293 cells,0.0%
CCCCCCCCCCCCN(CCCCCCCCCCCC)c1nc(NCCN2CCCC2)nc(SCCCCCCCCCCC)n1 [S11^2N12 D3],Absolute DNA transfection efficiency in HEK293 cells,0.0%
CCCCCCCCCCCCN(CCCCCCCCCCCC)c1nc(NCCN2CCCCC2)nc(SCCCCCCCCCCC)n1 [S11^2N12 D4],Absolute DNA transfection efficiency in HEK293 cells,0.0%
CCCCCCCCCCCCN(CCCCCCCCCCCC)c1nc(NCCN2CCN(C)CC2)nc(SCCCCCCCCCCC)n1 [S11^2N12 D5],Absolute DNA transfection efficiency in HEK293 cells,0.1%
CCCCCCCCCCCCN(CCCCCCCCCCCC)c1nc(NCCCN(C)C)nc(SCCCCCCCCCCC)n1 [S11^2N12 D6],Absolute DNA transfection efficiency in HEK293 cells,0.3%
